Assay: xn = mol fraction of the nth substance listed

C1C[C@@H]2[C@H]3CC[C@H](C3)[C@@H]2C1 + CC(C)CC(C)(C)C
viscosity [mPa·s], 100 kPa
Settings	x1 = 0.1	x1 = 0.2002	x1 = 0.3008	x1 = 0.4003	x1 = 0.5008	x1 = 0.5997	x1 = 0.6982	x1 = 0.8002	x1 = 0.9012
293.15 K	0.593	0.682	0.795	0.929	1.102	1.316	1.582	1.959	2.405
298.15 K	0.563	0.643	0.745	0.868	1.026	1.219	1.457	1.799	2.194
303.15 K	0.532	0.608	0.701	0.813	0.958	1.132	1.347	1.657	2.008
308.15 K	0.506	0.574	0.661	0.764	0.896	1.056	1.251	1.534	1.844
313.15 K	0.483	0.546	0.626	0.719	0.842	0.987	1.164	1.42	1.701

CCCCCCCCCCCCC + CCCCO
viscosity [mPa·s], 100 kPa
Settings	x1 = 0.1001	x1 = 0.2009	x1 = 0.2975	x1 = 0.3918	x1 = 0.5054	x1 = 0.6051	x1 = 0.7	x1 = 0.7984	x1 = 0.8908
293.15 K	2.584	2.319	2.148	2.004	1.901	1.841	1.807	1.788	1.829
298.15 K	2.271	2.051	1.905	1.789	1.703	1.644	1.63	1.617	1.668
303.15 K	2.006	1.821	1.701	1.606	1.535	1.489	1.48	1.469	1.522
308.15 K	1.782	1.625	1.524	1.448	1.391	1.353	1.351	1.342	1.386
313.15 K	1.591	1.459	1.374	1.312	1.268	1.246	1.239	1.231	1.265
318.15 K	1.426	1.314	1.245	1.194	1.161	1.152	1.139	1.133	1.158
323.15 K	1.283	1.19	1.132	1.092	1.066	1.059	1.052	1.048	1.068

CC(=O)CCC(=O)O + C[N+](C)(C)CCO.[Cl-]
viscosity [mPa·s]
Settings	293.15 K	298.15 K	303.15 K	308.15 K	313.15 K	318.15 K	323.15 K
100 kPa, x2 = 0.33	320.6	226.8	164.5	122.5	93.62	72.54	57.48
101 kPa, x1 = 0.75	134.2	–	79.14	–	47.76	–	31.29
101 kPa, x2 = 0.25	–	132.9	–	–	–	46.9	–
101 kPa, x2 = 0.333	–	207.8	–	–	–	68	–

[Cs+].[I-] + O
310.15 K, 101 kPa
Settings	viscosity [mPa·s]
x1 = 0.000182	0.6958
x1 = 0.000913	0.6971
x1 = 0.001829	0.6934
x1 = 0.002695	0.6844
x1 = 0.003679	0.6676
x1 = 0.005197	0.6281
x1 = 0.005988	0.6009

CCC(=O)O + CC(C)O
viscosity [mPa·s], 101 kPa
Settings	x2 = 0.007361	x2 = 0.0288	x2 = 0.04944	x2 = 0.06903	x2 = 0.1	x2 = 0.1291	x2 = 0.1819	x2 = 0.2287
298.15 K	2.67	2.6	2.54	2.475	2.4	2.342	2.277	2.22
308.15 K	1.99	1.948	1.915	1.882	1.836	1.8	1.75	1.71
318.15 K	1.54	1.52	1.5	1.484	1.454	1.428	1.392	1.367

CCCOC(=O)CC + CCCCCC
298.15 K, 101.33 kPa
Settings	viscosity [mPa·s]
x1 = 0.0581	0.299
x1 = 0.1227	0.31
x1 = 0.2151	0.33
x1 = 0.3111	0.355
x1 = 0.3983	0.379
x1 = 0.4343	0.389
x1 = 0.4898	0.401
x1 = 0.5466	0.421
x1 = 0.586	0.433
x1 = 0.68	0.465
x1 = 0.8894	0.557
x1 = 0.9133	0.573

CC12CCC(CC1)C(C)(C)O2 + COC(C)(C)C
298.15 K, 101.33 kPa
Settings	viscosity [mPa·s]
x2 = 0.039	2.365
x2 = 0.1663	1.833
x2 = 0.2659	1.491
x2 = 0.379	1.188
x2 = 0.4562	1.02
x2 = 0.5768	0.7958
x2 = 0.6621	0.6632
x2 = 0.7385	0.5702
x2 = 0.8408	0.4604
x2 = 0.902	0.4049
x2 = 0.9701	0.3547

CC(=O)CCC(=O)O + CC[N+](CC)(CC)CC.[Br-]
101 kPa, x1 = 0.75
Settings	viscosity [mPa·s]
293.15 K	149
303.15 K	76.98
313.15 K	42.42
323.15 K	28.81

CCCCN(CCO)CCO + O
viscosity [mPa·s], 101 kPa
Settings	303.15 K	308.15 K	313.15 K	318.15 K	323.15 K
x1 = 0.0501	3.144	2.695	2.335	2.041	1.795
x1 = 0.0999	6.924	5.705	4.763	4.027	3.434
x1 = 0.15	11.35	9.112	7.428	6.13	5.123
x1 = 0.2	15.8	12.47	10.01	8.116	6.674
x1 = 0.3013	25.17	19.3	15.07	11.97	9.604
x1 = 0.3988	32.99	24.94	19.22	15.07	11.96
x1 = 0.4994	39.06	29.14	22.33	17.44	13.76
x1 = 0.6027	42.39	31.62	24.2	18.83	14.84
x1 = 0.7058	43.85	32.83	25.16	19.65	15.51
x1 = 0.8009	43.72	32.88	25.37	19.83	15.71
x1 = 0.899	42.96	32.66	25.3	19.86	15.82

CCC(=O)O + O=[N+]([O-])c1ccccc1
viscosity [mPa·s], 101 kPa
Settings	x1 = 0.1311	x1 = 0.2535	x1 = 0.3679	x1 = 0.4752	x1 = 0.5759	x1 = 0.6708	x1 = 0.7601	x1 = 0.8445	x1 = 0.9244
298.15 K	1.763	1.711	1.663	1.612	1.551	1.478	1.392	1.291	1.175
308.15 K	1.469	1.452	1.428	1.394	1.346	1.285	1.21	1.121	1.019
318.15 K	1.35	1.42	1.421	1.376	1.301	1.207	1.106	1.002	0.9012

OC[C@@H](O)[C@@H](O)CO + OC[C@@H](O)[C@H](O)[C@@H](O)CO
101 kPa, x1 = 0.36
Settings	viscosity [mPa·s]
313 K	31330
318 K	18000
323 K	10110

CCCC[n+]1ccccc1.[Cl][Al-]([Cl])([Cl])[Cl] + [Al+3].[Cl-].[Cl-].[Cl-]
viscosity [mPa·s], 101 kPa
Settings	293.15 K	298.15 K	303.15 K	308.15 K	313.15 K	318.15 K	323.15 K
x2 = 0.46	29.8	26.4	22.8	19.9	17.6	15.8	13.8
x2 = 0.57	29	25.2	22.1	19.9	17.6	15.6	14.2

CCC(=O)O + Cc1ccccc1
viscosity [mPa·s], 101.33 kPa
Settings	293.15 K	303.15 K	308.15 K	313.15 K	323.15 K
x1 = 0.1231	–	–	0.5358	–	–
x1 = 0.2366	–	–	0.5532	–	–
x1 = 0.3487	–	–	0.5721	–	–
x1 = 0.4523	–	–	0.597	–	–
x1 = 0.5546	–	–	0.6271	–	–
x1 = 0.6523	–	–	0.6628	–	–
x1 = 0.7435	–	–	0.702	–	–
x1 = 0.832	–	–	0.7411	–	–
x1 = 0.9187	–	–	0.8128	–	–
x2 = 0.0286	1.06	0.9144	–	0.8218	0.7431
x2 = 0.072	1.009	0.8713	–	0.7818	0.6965
x2 = 0.1175	0.967	0.8298	–	0.751	0.672
x2 = 0.1497	0.9304	0.7997	–	0.7176	0.6478
x2 = 0.2309	0.8623	0.7424	–	0.6663	0.5978
x2 = 0.3182	0.806	0.6911	–	0.6194	0.5682
x2 = 0.4118	0.7554	0.6539	–	0.5909	0.5342
x2 = 0.5137	0.7079	0.6205	–	0.5536	0.5047
x2 = 0.555	0.6938	0.6095	–	0.5469	0.4952
x2 = 0.6209	0.6768	0.5898	–	0.5292	0.4824
x2 = 0.6913	0.6606	0.5743	–	0.5131	0.4666
x2 = 0.7372	0.6419	0.5603	–	0.5035	0.4574
x2 = 0.787	0.6276	0.5507	–	0.494	0.4506
x2 = 0.8644	0.6088	0.5364	–	0.4799	0.4372
x2 = 0.9714	0.5928	0.5259	–	0.4684	0.4295
